Measured values: patent US9783537B2, “3-(4-ethylnylphenyl) pyridopyrimidinone compounds and process for preparation thereof useful as potential anticancer agents” (Council of Scientific & Industrial Research, priority 2013, dated 2017)

Row | melting point [°C] | SMILES
1 | 123 to 124 | C#Cc1ccc(-n2c(/C=C/c3ccc(F)c(F)c3)nc3ncccc3c2=O)cc1 [4f, (E)-2-(3,4-Difluorostyryl)-3-(4-ethynylphenyl)pyrido[2,3-d]pyrimidin-4(3H)-one]
2 | 123 to 124 | C#Cc1ccc(-n2c(/C=C/c3ccc(O)c(OC)c3)nc3ncccc3c2=O)cc1 [4k, (E)-3-(4-Ethynylphenyl)-2-(4-hydroxy-3-methoxystyryl)pyrido[2,3-d]pyrimidin-4(3H)-one]
3 | 125 to 126 | C#Cc1ccc(-n2c(/C=C/c3cccc4c3OCO4)nc3ncccc3c2=O)cc1 [4o, (E)-2-(2-(benzo[d][1,3]dioxol-4-yl)vinyl)-3-(4-ethynylphenyl)pyrido[2,3-d]pyrimidin-4(3H)-one]
4 | 123 to 124 | C#Cc1ccc(-n2c(/C=C/c3cc(OC)cc(OC)c3)nc3ncccc3c2=O)cc1 [4m, (E)-2-(3,5-Dimethoxystyryl)-3-(4-ethynylphenyl)pyrido[2,3-d]pyrimidin-4(3H)-one]
5 | 124 to 125 | C#Cc1ccc(-n2c(/C=C/c3c(OC)cc(OC)cc3OC)nc3ncccc3c2=O)cc1 [4r, (E)-3-(4-Ethynylphenyl)-2-(2,4,6-trimethoxystyryl)pyrido[2,3-d]pyrimidin-4(3H)-one]
6 | 114 to 115 | C#Cc1ccc(-n2c(/C=C/c3c[nH]c4ccc(OC)cc34)nc3ncccc3c2=O)cc1 [4v, (E)-3-(4-ethynylphenyl)-2-(2-(5-methoxy-1H-indol-3-yl)vinyl)pyrido[2,3-d]pyrimidin-4(3H)-one]
7 | 123 to 124 | C#Cc1ccc(-n2c(/C=C/c3ccc4[nH]ccc4c3)nc3ncccc3c2=O)cc1 [4u, (E)-2-(2-(1H-Indol-5-yl)vinyl)-3-(4-ethynylphenyl)pyrido[2,3-d]pyrimidin-4(3H)-one]
8 | 123 to 124 | C#Cc1ccc(-n2c(/C=C/c3ccc(F)cc3)nc3ncccc3c2=O)cc1 [4a, (E)-3-(4-Ethynylphenyl)-2-(4-fluorostyryl)pyrido[2,3-d]pyrimidin-4(3H)-one]
9 | 127 to 128 | C#Cc1ccc(-n2c(/C=C/c3cc(OC)ccc3OC)nc3ncccc3c2=O)cc1 [4n, (E)-2-(2,5-Dimethoxystyryl)-3-(4-ethynylphenyl)pyrido[2,3-d]pyrimidin-4(3H)-one]
10 | 128 to 129 | C#Cc1ccc(-n2c(/C=C/c3cccc(OC(F)(F)F)c3)nc3ncccc3c2=O)cc1 [4d, (E)-3-(4-Ethynylphenyl)-2-(3-(trifluoromethoxy)styryl)pyrido[2,3-d]pyrimidin-4(3H)-one]
11 | 124 to 125 | C#Cc1ccc(-n2c(/C=C/c3ccc(OC)c(F)c3)nc3ncccc3c2=O)cc1 [4h, (E)-3-(4-Ethynylphenyl)-2-(3-fluoro-4-methoxystyryl)pyrido[2,3-d]pyrimidin-4(3H)-one]
